pEC50: −log10 of the molar value.

Sequence of FXR (Q96RI1 262-486): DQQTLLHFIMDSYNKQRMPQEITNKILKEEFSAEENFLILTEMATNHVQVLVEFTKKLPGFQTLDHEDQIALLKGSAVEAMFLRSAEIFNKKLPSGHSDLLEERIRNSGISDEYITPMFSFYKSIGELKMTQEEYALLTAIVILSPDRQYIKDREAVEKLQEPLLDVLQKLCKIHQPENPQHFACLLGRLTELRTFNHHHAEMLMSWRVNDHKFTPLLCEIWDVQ

The assay addresses FXR (Homo sapiens (Human), UniProt Q96RI1). The assay can be described thus: FXR EC50 (FXR agonist activity reported with each example). Format: cell-based.
In the case of `O=C(O)c1ccc(C2CC2)c2nc(C34CCC(OCc5c(-c6c(Cl)cncc6Cl)noc5C5CC5)(CC3)CC4)ccc12` [Example 385, 8-cyclopropyl-2-(4-((5-cyclopropyl-3-(3,5-dichloropyridin-4-yl)isoxazol-4-yl)methoxy)bicyclo[2.2.2]octan-1-yl)quinoline-5-carboxylic acid], the negative-log EC50 (pEC50) was 7.89.

With `O=C(O)c1cc(OCC2COC2)c2cc(OCC34CCC(OCc5c(-c6c(Cl)cncc6Cl)noc5C5CC5)(CC3)CC4)ccc2n1` [Example 360], the pEC50 was 6.85.

With `O=C(O)c1cc(C#CC23CCC(OCc4c(-c5c(Cl)cncc5Cl)noc4C4CC4)(CC2)CC3)cc(OC(F)(F)F)c1` [Example 378], the pEC50 is 6.89. This pEC50 and that of the compound before are within 0.2 log units of each other.

Turning to `O=C(O)c1cc(OCC(CO)CCl)c2cc(OCC34CCC(OCc5c(-c6c(Cl)cncc6Cl)noc5C5CC5)(CC3)CC4)ccc2n1` (stereo not drawn) [Example 356], the pEC50 is 6.96.

For the compound `O=C(O)c1cccc(-c2noc(C34CCC(COCc5c(-c6ccccc6OC(F)(F)F)noc5C5CC5)(CC3)CC4)n2)c1` [Example 153], the pEC50 is 6.49.

Compound `CC(C)(C(N)=O)c1ccc(C23CCC(/C=C/c4c(-c5ccccc5C(F)(F)F)noc4C4CC4)(CC2)CO3)cc1` [Example 480, (E)-2-(4-(4-(2-(5-cyclopropyl-3-(2-(trifluoromethyl)phenyl)isoxazol-4-yl)vinyl)-2-oxabicyclo[2.2.2]octan-1-yl)phenyl)-2-methylpropanamide] gave a pEC50 of 6.00.

Consider `COc1cc(-c2noc(C34CCC(OCc5c(-c6c(Cl)cncc6Cl)noc5C5CC5)(CC3)CC4)n2)cc(C(=O)O)c1OC` [Example 243, 5-(5-(4-((5-cyclopropyl-3-(3,5-dichloropyridin-4-yl)isoxazol-4-yl)methoxy)bicyclo[2.2.2]octan-1-yl)-1,2,4-oxadiazol-3-yl)-2,3-dimethoxybenzoic acid], for which the pEC50 was 6.92. This pEC50 is 0.92 log units higher than that of the compound before.

Compound `O=C(O)c1cc(F)c2nc(C(O)C34CCC(OCc5c(-c6c(Cl)cccc6Cl)noc5C5CC5)(CC3)CC4)sc2c1` (stereo not drawn) [Example 122, 2-((4-((5-cyclopropyl-3-(2,6-dichlorophenyl)isoxazol-4-yl)methoxy)bicyclo[2.2.2]octan-1-yl)(hydroxy)methyl)-4-fluorobenzo[d]thiazole-6-carboxylic acid] had a pEC50 of 6.00. This pEC50 lies 0.92 log units lower than the previous one.

`CCOc1cc(C(=O)O)nc2cc(F)c(OCC34CCC(OCc5c(-c6c(Cl)cncc6Cl)noc5C5CC5)(CC3)CC4)cc12` [Example 313, 6-((4-((5-cyclopropyl-3-(3,5-dichloropyridin-4-yl)isoxazol-4-yl)methoxy)bicyclo[2.2.2]octan-1-yl)methoxy)-4-ethoxy-7-fluoroquinoline-2-carboxylic acid] had a pEC50 of 7.32.

Consider `O=C(O)c1cc(C#CC23CCC(OCc4c(-c5c(Cl)cncc5Cl)noc4C4CC4)(CC2)CC3)cn2ccnc12` [Example 404], for which the pEC50 is 6.85. Against the preceding compound, the pEC50 is 0.47 log units lower.

`COc1nc(C(=O)O)cc2ccc(/C=C/C34CCC(OCc5c(-c6c(Cl)cncc6Cl)noc5C5CC5)(CC3)CC4)cc12` [Example 517, (E)-7-(2-(4-((5-cyclopropyl-3-(3,5-dichloropyridin-4-yl)isoxazol-4-yl)methoxy)bicyclo[2.2.2]octan-1-yl)vinyl)-1-methoxyisoquinoline-3-carboxylic acid] gave a pEC50 of 7.38.

Compound `O=C(O)c1cc(-c2noc(C34CCC(OCc5c(-c6c(Cl)cncc6Cl)noc5C5CC5)(CC3)CC4)n2)cc(OC2CC2)n1` [Example 260, 6-cyclopropoxy-4-(5-(4-((5-cyclopropyl-3-(3,5-dichloropyridin-4-yl)isoxazol-4-yl)methoxy)bicyclo[2.2.2]octan-1-yl)-1,2,4-oxadiazol-3-yl)picolinic acid] showed a pEC50 of 7.41.

`COc1cc(OCC23CCC(/C=C/c4c(-c5c(Cl)cncc5Cl)noc4C4CC4)(CC2)OC3)cc(C(=O)O)c1` [Example 474, (E)-3-((1-(2-(5-cyclopropyl-3-(3,5-dichloropyridin-4-yl)isoxazol-4-yl)vinyl)-2-oxabicyclo[2.2.2]octan-4-yl)methoxy)-5-methoxybenzoic acid] had a pEC50 of 6.31.

Compound `N#CC12CCC(OCc3c(-c4c(Cl)cccc4Cl)noc3C3CC3)(CC1)CC2` [Intermediate 70A, 4-((5-Cyclopropyl-3-(2,6-dichlorophenyl)isoxazol-4-yl)methoxy)bicyclo[2.2.2]octane-1-carbonitrile] had a pEC50 of 6.33.

`CC(C)(O)COc1ccc(C(=O)O)c2ccc(C34CCC(OCc5c(-c6c(Cl)cncc6Cl)noc5C5CC5)(CC3)CC4)nc12` [Example 418, 2-(4-((5-cyclopropyl-3-(3,5-dichloropyridin-4-yl)isoxazol-4-yl)methoxy)bicyclo[2.2.2]octan-1-yl)-8-(2-hydroxy-2-methylpropoxy)quinoline-5-carboxylic acid] had a pEC50 of 6.92.

On to `O=C(O)c1ncc(OCC23CCC(OCc4c(-c5c(Cl)cncc5Cl)noc4C4CC4)(CC2)CC3)cc1OC1CC1` [Example 340], for which the pEC50 was 7.34.

In turn, `O=C(O)c1cccc(C23CCC(COCc4c(-c5c(Cl)cncc5Cl)noc4C4CC4)(CC2)CO3)c1` [Example 511, 3-(4-(((5-cyclopropyl-3-(3,5-dichloropyridin-4-yl)isoxazol-4-yl)methoxy)methyl)-2-oxabicyclo[2.2.2]octan-1-yl)benzoic acid] gave a pEC50 of 5.54.

Take `O=C(O)c1cccc(OCC23CCC(OCc4c(-c5c(Cl)cccc5Cl)noc4C4CC4)(CC2)CC3)c1F` [Example 96, 3-((4-((5-cyclopropyl-3-(2,6-dichlorophenyl)isoxazol-4-yl)methoxy)bicyclo[2.2.2]octan-1-yl)methoxy)-2-fluorobenzoic acid]: the pEC50 was 6.92.

Regarding `O=C(O)c1ccc2nc(C34CCC(OCc5c(-c6c(Cl)cccc6Cl)noc5C5CC5)(CC3)CC4)ccc2n1` [Example 136, 6-(4-((5-cyclopropyl-3-(2,6-dichlorophenyl)isoxazol-4-yl)methoxy)bicyclo[2.2.2]octan-1-yl)-1,5-naphthyridine-2-carboxylic acid], the pEC50 is 7.44.

On to `O=C(O)c1cccc(C23CCC(COCc4c(-c5c(Cl)cccc5Cl)noc4C4CC4)(CC2)CO3)c1` [Example 195, 3-(4-(((5-cyclopropyl-3-(2,6-dichlorophenyl)isoxazol-4-yl)methoxy)methyl)-2-oxabicyclo[2.2.2]octan-1-yl)benzoic acid], for which the pEC50 is 7.33.

`O=C(O)[C@@H]1CCC[C@H](OCC23CCC(OCc4c(-c5ccccc5OC(F)(F)F)noc4C4CC4)(CC2)CC3)C1` [Example 81]: the pEC50 is 5.33.

In turn, `O=C(O)c1ccc2nc(C34CCC(/C=C/c5c(-c6ccccc6OC(F)(F)F)noc5C5CC5)(CC3)CC4)sc2c1` [Example 182, (E)-2-(4-(2-(5-cyclopropyl-3-(2-(trifluoromethoxy)phenyl)isoxazol-4-yl)vinyl)bicyclo[2.2.2]octan-1-yl)benzo[d]thiazole-6-carboxylic acid] showed a pEC50 of 7.00. Against the preceding compound, the pEC50 is 1.67 log units higher.

With `O=C(O)c1cc(F)c2nc(OCC34CCC(OCc5c(-c6ccccc6OC(F)(F)F)noc5C5CC5)(CC3)CC4)sc2c1` [Example 79], the negative-log EC50 (pEC50) was 6.89. The pEC50 values of the last two compounds are within 0.2 log units of each other.

`O=C(O)c1ccc2nc(C(O)C34CCC(OCc5c(-c6c(Cl)cccc6Cl)noc5C5CC5)(CC3)CC4)sc2c1` (stereo not drawn) [Example 124, 2-((4-((5-cyclopropyl-3-(2,6-dichlorophenyl)isoxazol-4-yl)methoxy)bicyclo[2.2.2]octan-1-yl)(hydroxy)methyl)benzo[d]thiazole-6-carboxylic acid] gave a pEC50 of 6.31.

`O=C(O)c1cccc(/C=C/C23CCC(OCc4c(-c5ccccc5OC(F)(F)F)noc4C4CC4)(CC2)CC3)c1` [Example 40] had a negative logarithm of the EC50 (pEC50) of 7.00.

Compound `COc1cc(OCC23CCC(/C=C/c4c(-c5c(Cl)cncc5Cl)noc4C4CC4)(CC2)CO3)cc(C(=O)O)c1` [Example 470, (E)-3-((4-(2-(5-cyclopropyl-3-(3,5-dichloropyridin-4-yl)isoxazol-4-yl)vinyl)-2-oxabicyclo[2.2.2]octan-1-yl)methoxy)-5-methoxybenzoic acid] gave a negative logarithm of the EC50 (pEC50) of 6.96. The pEC50 values of the last two compounds are within 0.2 log units of each other.

For `O=C(O)c1ccc(F)c(OCC23CCC(OCc4c(-c5c(Cl)cccc5Cl)noc4C4CC4)(CC2)CC3)c1` [Example 92, 3-((4-((5-cyclopropyl-3-(2,6-dichlorophenyl)isoxazol-4-yl)methoxy)bicyclo[2.2.2]octan-1-yl)methoxy)-4-fluorobenzoic acid], the pEC50 was 7.64.

`N#Cc1ccc(C(=O)O)c2ccc(C34CCC(OCc5c(-c6c(Cl)cncc6Cl)noc5C5CC5)(CC3)CC4)nc12` [Example 384, 8-cyano-2-(4-((5-cyclopropyl-3-(3,5-dichloropyridin-4-yl)isoxazol-4-yl)methoxy)bicyclo[2.2.2]octan-1-yl)quinoline-5-carboxylic acid]: the pEC50 is 6.09.

`O=C(O)c1cccc(-c2noc(C34CCC(OCc5c(-c6ccccc6OC(F)(F)F)noc5C5CC5)(CC3)CC4)n2)n1` [Example 47] gave a pEC50 of 6.26.

Compound `COc1ccc(-c2nc(C34CCC(OCc5c(-c6c(Cl)cncc6Cl)noc5C5CC5)(CC3)CC4)c[nH]2)cc1C(=O)O` [Example 259, 5-(4-(4-((5-cyclopropyl-3-(3,5-dichloropyridin-4-yl)isoxazol-4-yl)methoxy)bicyclo[2.2.2]octan-1-yl)-1H-imidazol-2-yl)-2-methoxybenzoic acid] showed a pEC50 of 5.26.

As for `COc1cc(-c2noc(C34CCC(OCc5c(-c6c(Cl)cncc6Cl)noc5C5CC5)(CC3)CC4)n2)cc(C(=O)O)n1` [Example 257, 4-(5-(4-((5-cyclopropyl-3-(3,5-dichloropyridin-4-yl)isoxazol-4-yl)methoxy)bicyclo[2.2.2]octan-1-yl)-1,2,4-oxadiazol-3-yl)-6-methoxypicolinic acid], the pEC50 is 7.10.

`COc1cc(C#CC23CCC(OCc4c(-c5c(Cl)cncc5Cl)noc4C4CC4)(CC2)CC3)nc(C(=O)O)c1` [Example 377]: the pEC50 is 6.41.

In the case of `O=C(O)c1ccc2nc(C34CCC(COCc5c(-c6c(Cl)cccc6Cl)noc5C5CC5)(CC3)CC4)oc2c1` [Example 178, 2-(4-(((5-cyclopropyl-3-(2,6-dichlorophenyl)isoxazol-4-yl)methoxy)methyl)bicyclo[2.2.2]octan-1-yl)benzo[d]oxazole-6-carboxylic acid], the pEC50 was 6.04.

For orientation: pEC50 means −log10 of the EC50, conventionally taken in molar units.

The values are drawn from patent US10730863B2, “Bridged bicyclic compounds as farnesoid X receptor modulators” (BRISTOL-MYERS SQUIBB COMPANY, priority 2017, dated 2020).
